In the Kinase Knowledgebase extract (Sharma et al. 2016):

How the values were obtained:
PIK3CA (human) [1] = target: PIK3CA (human) (UniProt P42336); test: Cell-Based Assay; conditions: rat-1
PIK3CD (Human) [2] = target: PIK3CD (Human) (UniProt O00329); test: Cell-Based Assay; conditions: rat-1
PIK3CA (human) [3] = target: PIK3CA (human) (UniProt P42336); test: Enzyme Assay
PIK3CD (Human) [4] = target: PIK3CD (Human) (UniProt O00329); test: Enzyme Assay
PIK3CG (human) = PIK3CG (human) (UniProt P48736); test: Enzyme Assay
Chain of PIK3CG (human) (P48736 whole entry, looked up): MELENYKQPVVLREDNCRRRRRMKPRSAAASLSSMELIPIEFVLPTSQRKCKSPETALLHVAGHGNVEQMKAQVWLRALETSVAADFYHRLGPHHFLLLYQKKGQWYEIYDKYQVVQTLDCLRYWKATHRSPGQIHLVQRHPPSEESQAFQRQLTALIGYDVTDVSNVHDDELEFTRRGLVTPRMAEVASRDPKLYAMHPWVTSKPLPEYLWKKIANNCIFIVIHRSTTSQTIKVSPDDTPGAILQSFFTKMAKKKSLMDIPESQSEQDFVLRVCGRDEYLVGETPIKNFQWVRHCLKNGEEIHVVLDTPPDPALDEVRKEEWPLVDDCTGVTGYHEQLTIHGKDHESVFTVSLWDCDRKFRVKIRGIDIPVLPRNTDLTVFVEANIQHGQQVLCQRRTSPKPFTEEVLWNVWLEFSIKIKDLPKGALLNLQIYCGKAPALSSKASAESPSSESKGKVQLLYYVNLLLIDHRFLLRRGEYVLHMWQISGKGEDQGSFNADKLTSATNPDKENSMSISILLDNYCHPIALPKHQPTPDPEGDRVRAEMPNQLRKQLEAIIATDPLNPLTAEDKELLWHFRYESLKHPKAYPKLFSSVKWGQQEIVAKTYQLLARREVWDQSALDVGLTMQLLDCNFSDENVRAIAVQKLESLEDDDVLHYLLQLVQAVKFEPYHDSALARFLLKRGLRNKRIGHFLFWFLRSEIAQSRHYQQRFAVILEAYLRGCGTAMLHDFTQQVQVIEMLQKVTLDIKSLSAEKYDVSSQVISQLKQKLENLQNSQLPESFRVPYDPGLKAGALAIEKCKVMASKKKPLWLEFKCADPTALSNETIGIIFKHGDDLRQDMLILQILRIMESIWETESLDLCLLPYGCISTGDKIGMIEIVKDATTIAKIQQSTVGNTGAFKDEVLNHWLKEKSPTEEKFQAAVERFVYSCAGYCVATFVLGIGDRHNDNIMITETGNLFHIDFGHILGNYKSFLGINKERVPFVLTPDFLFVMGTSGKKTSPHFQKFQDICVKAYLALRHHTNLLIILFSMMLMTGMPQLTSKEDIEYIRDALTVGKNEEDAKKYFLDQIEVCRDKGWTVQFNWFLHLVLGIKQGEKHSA

Chain of PIK3CA (human) (P42336 whole entry, looked up): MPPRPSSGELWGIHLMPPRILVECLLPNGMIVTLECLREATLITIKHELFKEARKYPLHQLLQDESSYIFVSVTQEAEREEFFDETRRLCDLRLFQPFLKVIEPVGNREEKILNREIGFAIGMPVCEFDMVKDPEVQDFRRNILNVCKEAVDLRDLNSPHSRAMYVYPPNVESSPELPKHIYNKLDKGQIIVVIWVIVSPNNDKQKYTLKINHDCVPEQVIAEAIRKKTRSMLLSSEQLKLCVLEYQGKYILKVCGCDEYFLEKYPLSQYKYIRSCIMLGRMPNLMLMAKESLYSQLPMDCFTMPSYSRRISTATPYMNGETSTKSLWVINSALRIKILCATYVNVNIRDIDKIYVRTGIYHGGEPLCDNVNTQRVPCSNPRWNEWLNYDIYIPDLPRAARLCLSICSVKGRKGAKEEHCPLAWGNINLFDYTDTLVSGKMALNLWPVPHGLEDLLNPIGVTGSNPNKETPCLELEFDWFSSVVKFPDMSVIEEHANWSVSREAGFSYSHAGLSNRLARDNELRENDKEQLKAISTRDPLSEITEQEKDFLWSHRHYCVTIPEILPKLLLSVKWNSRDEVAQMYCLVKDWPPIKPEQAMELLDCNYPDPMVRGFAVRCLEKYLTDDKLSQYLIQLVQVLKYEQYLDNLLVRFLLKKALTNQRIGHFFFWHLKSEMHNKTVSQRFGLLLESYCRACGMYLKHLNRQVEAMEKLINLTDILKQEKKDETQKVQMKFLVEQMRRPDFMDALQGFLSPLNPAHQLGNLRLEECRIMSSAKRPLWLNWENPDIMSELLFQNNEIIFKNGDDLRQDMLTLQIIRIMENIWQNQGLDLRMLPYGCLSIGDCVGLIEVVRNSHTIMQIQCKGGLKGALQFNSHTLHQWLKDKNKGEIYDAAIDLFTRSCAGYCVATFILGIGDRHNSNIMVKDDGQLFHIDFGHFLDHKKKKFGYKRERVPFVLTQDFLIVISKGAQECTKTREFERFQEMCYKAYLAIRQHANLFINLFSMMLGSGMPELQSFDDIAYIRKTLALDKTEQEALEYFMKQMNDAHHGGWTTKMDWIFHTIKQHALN
Chain of PIK3CD (Human) (O00329 whole entry, looked up): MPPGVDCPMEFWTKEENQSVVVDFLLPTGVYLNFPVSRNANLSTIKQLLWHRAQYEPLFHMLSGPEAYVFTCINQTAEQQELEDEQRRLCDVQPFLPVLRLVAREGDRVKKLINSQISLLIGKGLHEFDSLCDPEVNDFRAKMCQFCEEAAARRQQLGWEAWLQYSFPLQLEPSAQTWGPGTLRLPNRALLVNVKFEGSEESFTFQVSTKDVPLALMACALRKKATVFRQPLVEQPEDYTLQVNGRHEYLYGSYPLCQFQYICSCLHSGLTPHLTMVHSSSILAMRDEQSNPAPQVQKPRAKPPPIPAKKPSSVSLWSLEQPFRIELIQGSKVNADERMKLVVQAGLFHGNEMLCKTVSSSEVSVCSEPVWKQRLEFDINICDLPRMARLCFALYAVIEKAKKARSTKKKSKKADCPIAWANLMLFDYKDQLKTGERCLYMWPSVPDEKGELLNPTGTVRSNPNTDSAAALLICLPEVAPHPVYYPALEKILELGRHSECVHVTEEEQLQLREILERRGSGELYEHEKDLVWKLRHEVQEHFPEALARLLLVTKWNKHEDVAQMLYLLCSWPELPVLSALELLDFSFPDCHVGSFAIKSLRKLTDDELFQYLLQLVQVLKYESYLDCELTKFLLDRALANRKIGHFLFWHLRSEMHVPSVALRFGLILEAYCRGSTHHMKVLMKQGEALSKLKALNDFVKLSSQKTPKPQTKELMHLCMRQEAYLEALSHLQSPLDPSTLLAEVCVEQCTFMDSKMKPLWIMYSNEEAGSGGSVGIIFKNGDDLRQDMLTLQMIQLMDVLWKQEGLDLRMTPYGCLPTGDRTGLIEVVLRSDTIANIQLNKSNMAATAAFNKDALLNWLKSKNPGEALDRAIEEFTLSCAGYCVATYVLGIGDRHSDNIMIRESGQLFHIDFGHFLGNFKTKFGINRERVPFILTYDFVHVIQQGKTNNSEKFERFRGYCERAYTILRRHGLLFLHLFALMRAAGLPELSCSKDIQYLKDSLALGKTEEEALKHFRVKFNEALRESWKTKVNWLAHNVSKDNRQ

Row | SMILES | IC50 (PIK3CA (human) [1]) [nM] | IC50 (PIK3CD (Human) [2]) [nM] | IC50 (PIK3CA (human) [3]) [nM] | IC50 (PIK3CD (Human) [4]) [nM] | IC50 (PIK3CG (human)) [nM]
1 | CN(C)n1c([C@@H]2CCCN2c2ncnc(N)c2C#N)nc2cccc(Cl)c2c1=O | 3530 | 26 | 1100 | 21 | 190
2 | O=c1c2c(Cl)cccc2nc([C@@H]2CCCN2c2ncnc3[nH]cnc23)n1-c1cccnc1 | > 10000 | 84 | 3300 | 20 | 170
3 | Cc1nc(N)nc(N2CCC[C@H]2c2nc3cc(F)cc(F)c3c(=O)n2-c2ccccc2)c1C#N | > 10000 | 148 | 5600 | 73 | 3100
4 | Nc1nc(N2CCC[C@H]2c2nc3cccc(Cl)c3c(=O)n2N2CCCCC2)c2nc[nH]c2n1 | 8580 | 291 | 2300 | 12 | 130
5 | N#Cc1c(N)ncnc1N1CCC[C@H]1c1nc2cccc(Cl)c2c(=O)n1C1CCOCC1 | > 10000 | 36 | 4700 | 8 | 280
6 | N#Cc1c(N)ncnc1N1CCC[C@H]1c1nc2cc(F)cc(F)c2c(=O)n1-c1ccccc1 | > 10000 | 292 | > 10000 | 43 | > 10000
7 | N#Cc1c(N)ncnc1N1CCC[C@H]1c1nc2ccc(F)c(F)c2c(=O)n1-c1ccccc1 | > 10000 | < 3 | 5550 | 90 | 2300
8 | COc1ccc(-n2c([C@@H]3CCCN3c3nc(N)nc4[nH]cnc34)nc3cccc(Cl)c3c2=O)cn1 | > 10000 | 651 | 8400 | 270 | 220
9 | O=c1c2c(Cl)cccc2nc([C@@H]2CCCN2c2ncnc3[nH]cnc23)n1[C@@H]1CCN(S(=O)(=O)C2CC2)C1 | > 10000 |  | > 10000 | 510 | 5600
10 | N#Cc1c(N)ncnc1N1CCC[C@H]1c1nc2cccc(Cl)c2c(=O)n1C1CCCCC1 | > 10000 | 13 | > 10000 | 16 | 1100
11 | CC1(n2c([C@@H]3CCCN3c3nc(N)nc4[nH]cnc34)nc3cccc(Cl)c3c2=O)CC1 | 3300 | 32 | 1030 | 26 | 58
12 | COc1ccc(-n2c([C@@H]3CCCN3c3ncnc4[nH]cnc34)nc3cccc(Cl)c3c2=O)cn1 | > 10000 | 1400 | > 10000 | 660 | 1900
13 | O=c1c2c(Cl)cccc2nc([C@@H]2CSCN2c2ncnc3[nH]cnc23)n1-c1ccccc1C1CC1 | 7140 | 142 | 7900 | 21 | 340
14 | Cn1cnc2c(N3CCC[C@H]3c3nc4cccc(Cl)c4c(=O)n3C3CC3)nc(N)nc21 | 5460 | 894 | 5950 | 1430 | 445
15 | N#Cc1cnc(N)nc1N1CCC[C@H]1c1nc2cccc(C(F)(F)F)c2c(=O)n1-c1ccccc1 | > 10000 | < 3 | 3100 | 23 | 230
16 | CN(C)n1c([C@@H]2CCCN2c2nc(N)nc3[nH]cnc23)nc2cccc(Cl)c2c1=O | 2860 | 128 | 1200 | 110 | 780
17 | CC1(n2c([C@@H]3CCCN3c3ncnc4[nH]cnc34)nc3cccc(Cl)c3c2=O)CC1 | 2150 | 7 | 580 | 7 | 490
18 | N#Cc1c(N)ncnc1N1CCC[C@H]1c1nc2cccc(OC(F)F)c2c(=O)n1-c1ccccc1 | > 10000 | 166 | 2400 | 12 | 590

Row | SMILES | IC50 (PIK3CA (human) [1]) [nM] | IC50 (PIK3CD (Human) [2]) [nM] | IC50 (PIK3CA (human) [3]) [nM] | IC50 (PIK3CD (Human) [4]) [nM] | IC50 (PIK3CG (human)) [nM]
19 | CO[C@H]1C[C@@H](c2nc3cccc(Cl)c3c(=O)n2N2CCOCC2)N(c2nc(N)nc(C)c2C#N)C1 | > 10000 | 29 | 1230 | 23 | 53
20 | O=c1c2c(Cl)cccc2nc([C@@H]2CSCN2c2ncnc3[nH]cnc23)n1-c1ccccc1 | > 10000 | 57 | 2940 | 18 | 202
21 | Cc1ccc(-n2c([C@@H]3CSCN3c3ncnc4[nH]cnc34)nc3cccc(Cl)c3c2=O)s1 | > 10000 | 509 | > 10000 | 140 | 820
22 | O=c1c2c(Cl)cccc2nc([C@@H]2CCON2c2ncnc3scnc23)n1-c1ccccc1 | 5990 | 57 | 1500 | 7 | 81
23 | CN(C)n1c([C@@H]2CCCN2c2ncnc3[nH]cnc23)nc2cccc(Cl)c2c1=O | 7680 | 109 | 2000 | 89 | 320
24 | Nc1nc(N2CCC[C@H]2c2nc3cc(F)cc(F)c3c(=O)n2-c2ccccc2)c2nc[nH]c2n1 | > 10000 | 318 | > 10000 | 150 | 4300
25 | Cc1nc(N)nc(N2CCC[C@H]2c2nc3ccc(F)c(F)c3c(=O)n2-c2ccccc2)c1C#N | > 10000 | < 3 | 600 | 14 | 41
26 | Cc1ccccc1-n1c([C@@H]2CCON2c2ncnc3[nH]cnc23)nc2cccc(Cl)c2c1=O | > 10000 | 2480 | > 10000 | 100 | 1200
27 | O=c1c2c(Cl)cccc2nc([C@@H]2CCON2c2ncnc3[nH]cnc23)n1-c1ccccc1 | > 10000 | 1810 |  | 150 | 980
28 | CS(=O)(=O)N1CC[C@@H](n2c([C@@H]3CCCN3c3ncnc4[nH]cnc34)nc3cccc(Cl)c3c2=O)C1 | > 10000 |  | > 10000 | 210 | 3700
29 | N#Cc1c(N)ncnc1N1CCC[C@H]1c1nc2cccc(Cl)c2c(=O)n1N1CCCCC1 | > 10000 | 278 | > 10000 | 120 | 3200
30 | O=c1c2c(Cl)cccc2nc([C@@H]2CCCN2c2ncnc3[nH]cnc23)n1C1CCCCC1 | > 10000 | 121 | > 10000 | 12 | 170
31 | COC(=O)N1CC[C@H](n2c([C@@H]3CCCN3c3ncnc4[nH]cnc34)nc3cccc(Cl)c3c2=O)C1 | > 10000 | 1150 | 9300 | 440 | > 10000
32 | Cc1nc(N)nc(N2CCC[C@H]2c2nc3cccc(C(F)(F)F)c3c(=O)n2-c2ccccc2)c1C#N | 210 | 37 | 460 | 5 | 46
33 | Cc1nc(N)c(C#N)c(N2CCC[C@H]2c2nc3cccc(C(F)(F)F)c3c(=O)n2-c2ccccc2)n1 | > 10000 | > 10000 | > 10000 | 43 | > 10000
34 | N#Cc1c(N)ncnc1N1CCC[C@H]1c1nc2cccc(Cl)c2c(=O)n1N1CCOCC1 | > 10000 | 20 | 1600 | 11 | 200
35 | Cn1nccc1-n1c([C@@H]2CSCN2c2ncnc3[nH]cnc23)nc2cccc(Cl)c2c1=O | > 10000 | 222 |  | 56 | 420
36 | Nc1nc(N2C[C@@H](O)C[C@H]2c2nc3cccc(Cl)c3c(=O)n2-c2ccccc2)c2nccn2n1 |  |  | 1000 | 15 | 31
